Bounds are passed on as bounds.

Test [1] deals with phospho-ERK in A549 (G12S) cells. Kind of test: Inhibition of KRas-mediated phosphorylation of ERK (in-cell western). In kind it is cell-based. Conditions: Homo sapiens, 3 hours compound, phospho-ERK normalized to GAPDH. The procedure, abridged:
(§1)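 Following fixation in formaldehyde and permeabilization in cold methanol, ERK phosphorylated at Thr202/Tyr204 was quantified against GAPDH.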

The subject of test [2] is phospho-ERK in AsPC-1 (G12D) cells. The test is described as above. Conditions: Homo sapiens, ASPC1, 3 h, 3 hours compound, phospho-ERK normalized to GAPDH. The class given is cell-based. In a few lines: as §1
The subject of test [3] is phospho-ERK in HCT116 (G13D) cells. The test is described as above. In kind it is cell-based. Conditions: Homo sapiens, HCT-116, 3 hours compound, phospho-ERK normalized to GAPDH. The procedure, abridged:
as §1

Test [4] relates to phospho-ERK in MKN1 (WTdep) cells. Described as above. In kind it is cell-based. Conditions: Homo sapiens, MKN-1, 3 hours compound, phospho-ERK normalized to GAPDH. The procedure, abridged: as §1
The test system of test [5] is phospho-ERK in NCI-H358 (G12C) cells. Described as above. Conditions: Homo sapiens, 3 hours compound, phospho-ERK normalized to GAPDH. The class given is cell-based. The procedure, abridged: as §1
Test [6] concerns phospho-ERK in NCI-H460 (Q61H) cells. Described as above. In kind it is cell-based. Conditions: Homo sapiens, NCI-H460, 3 h, 3 hours compound, phospho-ERK normalized to GAPDH. The procedure, abridged:
as §1

Test [7] relates to phospho-ERK in NCI-H727 (G12V) cells. The description is as above. The class given is cell-based. Conditions: Homo sapiens, NCI-H727, 3 h, 3 hours compound, phospho-ERK normalized to GAPDH. In a few lines:
as §1

Test [8] concerns phospho-ERK in PSN-1 (G12R) cells. The test is described as above. The class given is cell-based. Conditions: Homo sapiens, PSN1, 3 hours compound, phospho-ERK normalized to GAPDH. The procedure, abridged:
as §1

In the next test the target is KRas G12D (Homo sapiens, UniProt P01116, G12D). The test can be described thus: biochemical.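 Further: TR-FRET displacement binding assay on KRas, read after a one-hour incubation at room temperature, IC50 fitted from percent-of-control values.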
KRas G12D, sequence (P01116 1-169 isoform P01116-2 G12D): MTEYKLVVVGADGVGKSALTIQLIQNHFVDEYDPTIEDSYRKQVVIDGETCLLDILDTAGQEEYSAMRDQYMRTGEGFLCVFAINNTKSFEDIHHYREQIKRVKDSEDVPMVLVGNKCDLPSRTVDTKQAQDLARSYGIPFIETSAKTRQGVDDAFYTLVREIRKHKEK
The next test has as its target KRas G12V (Homo sapiens, UniProt P01116, G12V). Kind of test: biochemical.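 Further: KRas binding measured by TR-FRET displacement at room temperature, IC50 fitted from percent of control values.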
Another test deals with KRas G12R (Homo sapiens, UniProt P01116, G12R). Kind of test: biochemical.
KRas G12R, sequence (P01116 1-169 isoform P01116-2 G12R): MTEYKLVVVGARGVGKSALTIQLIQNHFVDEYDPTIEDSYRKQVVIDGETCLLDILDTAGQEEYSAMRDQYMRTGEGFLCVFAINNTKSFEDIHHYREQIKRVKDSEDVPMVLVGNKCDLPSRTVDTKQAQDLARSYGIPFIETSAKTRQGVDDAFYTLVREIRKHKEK

KRas G12V, sequence (P01116 1-169 isoform P01116-2 G12V): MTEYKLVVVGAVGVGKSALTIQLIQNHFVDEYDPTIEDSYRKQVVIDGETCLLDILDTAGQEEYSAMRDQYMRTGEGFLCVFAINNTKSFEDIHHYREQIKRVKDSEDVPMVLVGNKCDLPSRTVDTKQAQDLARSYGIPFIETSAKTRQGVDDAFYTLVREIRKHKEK

Broadly, the IC50 is the midpoint of a concentration-inhibition curve. Low readings indicate inhibition by little substance, high ones a need for much substance. Turning to `CCc1c(F)ccc2cc(O)cc(-c3ncc4c(N5CCCC6(CNC(=O)C6)C5)nc(OC[C@@]56CCCN5C[C@H](F)C6)nc4c3F)c12` (stereo partly shown) [Example 38], the IC50 in [1] turned out to be 3270 nM; in test [2], 966 nM; in test [3] it was 814 nM; in [4], 143 nM; in test [5] it was 324 nM; in test [6], 573 nM. Further, the IC50 is 1190 nM in test [7]; 7620 nM in test [8]; no more than 2 nM on KRas G12D; no more than 2 nM on KRas G12V; no more than 2 nM against KRas G12R.
As to `CCc1c(F)ccc2cc(O)cc(-c3ncc4c(NCc5cn[nH]c5)nc(OC[C@@]56CCCN5C[C@H](F)C6)nc4c3F)c12` [Example 160, 4-(4-(((1H-pyrazol-4-yl)methyl)amino)-8-fluoro-2-(((2R,7aS)-2-fluorohexahydro-1H-pyrrolizin-7a-yl)methoxy)pyrido[4,3-d]pyrimidin-7-yl)-5-ethyl-6-fluoronaphthalen-2-ol], the IC50 in test [1] amounted to 974 nM; in [2], 5520 nM; in test [3], 1600 nM; in [4], 146 nM; in [5], 149 nM; in test [6] it was 471 nM. Moreover, the IC50 was 727 nM in test [7]; no less than 10000 nM in test [8]; 15 nM against KRas G12D; no more than 2 nM on KRas G12V; no more than 2 nM against KRas G12R.
Regarding `CCc1c(F)ccc2cc(O)cc(-c3ncc4c(NCc5c[nH]c6ncccc56)nc(OC[C@@]56CCCN5C[C@H](F)C6)nc4c3F)c12` [62.], the IC50 was 87 nM in test [1]; 591 nM in test [2]; 410 nM in test [3]; 7 nM in [4]; 24 nM in [5]; 154 nM in [6]. The figures for the IC50 in test [7] and in [8] were 178 nM and no less than 10000 nM, respectively.
As for `CCc1c(F)ccc2cc(O)cc(-c3ncc4c(NCCCc5ccncc5)nc(OC[C@@]56CCCN5C[C@H](F)C6)nc4c3F)c12` [Example 176, 5-ethyl-6-fluoro-4-(8-fluoro-2-(((2R,7aS)-2-fluorohexahydro-1H-pyrrolizin-7a-yl)methoxy)-4-((3-(pyridin-4-yl)propyl)amino)pyrido[4,3-d]pyrimidin-7-yl)naphthalen-2-ol], the IC50 is no less than 10000 nM in test [1]; no less than 10000 nM in [2]; no less than 10000 nM in [3]; 701 nM in [4]; 1250 nM in [5]; 3510 nM in [6]. The IC50 is 3950 nM in test [7]; no less than 10000 nM in test [8]; 108 nM on KRas G12D; 20 nM against KRas G12V; 30 nM against KRas G12R.
Turning to `CCc1c(F)ccc2cc(O)cc(-c3ncc4c(NCc5cc[nH]n5)nc(OC[C@@]56CCCN5C[C@H](F)C6)nc4c3F)c12` [Example 159, 4-(4-(((1H-pyrazol-3-yl)methyl)amino)-8-fluoro-2-(((2R,7aS)-2-fluorohexahydro-1H-pyrrolizin-7a-yl)methoxy)pyrido[4,3-d]pyrimidin-7-yl)-5-ethyl-6-fluoronaphthalen-2-ol], the IC50 in test [1] was 4070 nM; in [2], no less than 10000 nM; in [3], 2110 nM; in test [4] it was 133 nM; in test [5], 139 nM; in [6], 1510 nM. Further, the half-inhibitory concentration (IC50) in test [7] is 2000 nM; in test [8], no less than 10000 nM; at KRas G12D, 39 nM; against KRas G12V it was 3 nM; against KRas G12R, 5 nM.
`CCc1c(F)ccc2cc(O)cc(-c3ncc4c(NCc5ncc6cc[nH]c6n5)nc(OC[C@@]56CCCN5C[C@H](F)C6)nc4c3F)c12` [Example 142, 4-(4-(((7H-pyrrolo[2,3-d]pyrimidin-2-yl)methyl)amino)-8-fluoro-2-(((2R,7aS)-2-fluorohexahydro-1H-pyrrolizin-7a-yl)methoxy)pyrido[4,3-d]pyrimidin-7-yl)-5-ethyl-6-fluoronaphthalen-2-ol]: the IC50 is no less than 10000 nM in test [1]; 2870 nM in test [2]; 6960 nM in test [3]; 45 nM in test [4]; 78 nM in test [5]; 212 nM in test [6]. The IC50 is no less than 10000 nM in test [7]; no less than 10000 nM in [8]; 14 nM on KRas G12D; no more than 2 nM on KRas G12V; no more than 2 nM on KRas G12R.
With `CCc1c(F)ccc2cc(O)cc(-c3ncc4c(Nc5ccon5)nc(OC[C@@]56CCCN5C[C@H](F)C6)nc4c3F)c12` [Example 152, 5-ethyl-6-fluoro-4-(8-fluoro-2-(((2R,7aS)-2-fluorohexahydro-1H-pyrrolizin-7a-yl)methoxy)-4-(isoxazol-3-ylamino)pyrido[4,3-d]pyrimidin-7-yl)naphthalen-2-ol], the IC50 in [1] was no less than 10000 nM; in [2], no less than 10000 nM; in [3], no less than 10000 nM; in [4], 6290 nM; in [5], no less than 10000 nM; in test [6] it was no less than 10000 nM. Besides, the IC50 was no less than 10000 nM in test [7]; no less than 10000 nM in test [8]; 175 nM on KRas G12D; 8 nM on KRas G12V; 10 nM on KRas G12R.
On to `CCc1c(F)ccc2cc(O)cc(-c3ncc4c(NCC5CNC(=O)C5)nc(OC[C@@]56CCCN5C[C@H](F)C6)nc4c3F)c12` (stereo partly shown) [Example 60], for which the IC50 in test [1] was determined as 5530 nM; in test [2] it was 3890 nM; in test [3], 3600 nM; in test [4], 230 nM; in [5] it was 389 nM; in test [6], 1030 nM. Moreover, the IC50 in test [7] was 1260 nM; in [8] it was no less than 10000 nM; against KRas G12D, no more than 2 nM; against KRas G12V it was no more than 2 nM; against KRas G12R, no more than 2 nM.
With `CCc1c(F)ccc2cc(O)cc(-c3ncc4c(N5CCCC(c6ncn[nH]6)C5)nc(OC[C@@]56CCCN5C[C@H](F)C6)nc4c3F)c12` (stereo partly drawn) [Example 145, 4-(4-(3-(1H-1,2,4-triazol-5-yl)piperidin-1-yl)-8-fluoro-2-(((2R,7aS)-2-fluorohexahydro-1H-pyrrolizin-7a-yl)methoxy)pyrido[4,3-d]pyrimidin-7-yl)-5-ethyl-6-fluoronaphthalen-2-ol], the IC50 in test [1] is no less than 10000 nM; in test [2] it was no less than 10000 nM; in test [3], no less than 10000 nM; in test [4], 258 nM; in [5], 379 nM; in test [6], 847 nM. In addition, the IC50 is no less than 10000 nM in test [7]; no less than 10000 nM in [8]; 9 nM on KRas G12D; 6 nM at KRas G12V; 3 nM against KRas G12R.
Turning to `CCc1c(F)ccc2cc(O)cc(-c3ncc4c(OCCCc5cccnc5)nc(OC[C@@]56CCCN5C[C@H](F)C6)nc4c3F)c12` [Example 298, 5-ethyl-6-fluoro-4-(8-fluoro-2-(((2R,7aS)-2-fluorohexahydro-1H-pyrrolizin-7a-yl)methoxy)-4-(3-(pyridin-3-yl)propoxy)pyrido[4,3-d]pyrimidin-7-yl)naphthalen-2-ol], the IC50 in test [1] was no less than 10000 nM; in test [2] it was no less than 10000 nM; in [3], no less than 10000 nM; in [4], 2710 nM; in test [5] it was 5010 nM; in test [6], no less than 10000 nM. Besides, the concentration for half-maximal inhibition (IC50) in test [7] was no less than 10000 nM; in [8], no less than 10000 nM; against KRas G12D, 1520 nM; at KRas G12V, 133 nM; against KRas G12R, 99 nM.
As to `CCc1c(F)ccc2cc(O)cc(-c3ncc4c(N5CC(n6ccnc6)C5)nc(OC[C@@]56CCCN5C[C@H](F)C6)nc4c3F)c12` [Example 134, 4-(4-(3-(1H-imidazol-1-yl)azetidin-1-yl)-8-fluoro-2-(((2R,7aS)-2-fluorohexahydro-1H-pyrrolizin-7a-yl)methoxy)pyrido[4,3-d]pyrimidin-7-yl)-5-ethyl-6-fluoronaphthalen-2-ol], the IC50 is 1490 nM in [1]; no less than 10000 nM in [2]; no less than 10000 nM in test [3]; 178 nM in [4]; 48 nM in [5]; 666 nM in [6]. The IC50 in [7] and in test [8] was no less than 10000 nM in each case.

The values are drawn from patent publication US12398154B2, “Azaquinazoline pan-KRas inhibitors” (Mirati Therapeutics, Inc., priority 2020, dated 2025).
